Each structure is given as a SMILES string. Like-named read-outs stand apart in the source and are kept apart here.

One data set concerns endogenous TFE3. Nature of the data set: TFE3 nuclear translocation, immunocytochemistry high-content imaging. It counts as cell-based.
Data set [1] deals with SH-SY5Y cells. The following applies: human.
In data set [2] the test system is SH-SY5Y cells.
Source text: The PKIS2 Library was supplied by The Structural Genomics Consortium at the University of North Carolina at Chapel Hill.
Data set [3] relates to SH-SY5Y cells. Conditions: human. The source holds these as a separate data set.
Procedure: Total cell lysis with 5 µL 5% Triton-X 100 (Sigma-Aldrich, T8787) is used as a positive control for the assay and toxicity is expressed as a percentage of luminescence under DMSO conditions.
Another data set relates to endogenous TFEB. Nature of the data set: TFEB nuclear translocation, immunocytochemistry high-content imaging. It counts as cell-based.
Throughout, for AK: reference of the scale not given here.
Throughout, for DQ Intensity: reference of the scale not given here.
Throughout, for DQ Spot: reference of the scale not given here.
Throughout, for Nuclear Count: reference of the scale not given here.

Compound `O=C1NC(=O)C(c2ccccc2)=C1Nc1cccc(O)c1` [UNC10225065A] gave a TFE3 % in the data set on endogenous TFE3 of 9.48%. For the same compound, the “Nuclear Count” value with SH-SY5Y cells [1] (SH-SY5Y cells, 24 h, 1 µM) worked out at 88.09. Moreover, in the data set on SH-SY5Y cells [2], the “DQ Intensity” value came out at 107.12 and the “DQ Spot” value came out at 107.03. Further, the AK in the data set with SH-SY5Y cells [3] (SH-SY5Y cells, 24 h, 1 µM) is on record as 106.60. Moreover, the TFEB % in the data set with endogenous TFEB is 4.40%.

In the case of `O=C1NC(=O)C(c2ccc(Cl)cc2)=C1Nc1ccc(O)cc1` [UNC10225090A], the TFE3 % in the data set with endogenous TFE3 came to 11.41%. Besides, in the data set with SH-SY5Y cells [1] (SH-SY5Y cells, 24 h, 1 µM), the “Nuclear Count” value is given as 99.00. In the data set with SH-SY5Y cells [2], the “DQ Intensity” value is reported as 92.30 and the “DQ Spot” value worked out at 94.51. The AK in the data set on SH-SY5Y cells [3] (SH-SY5Y cells, 24 h, 1 µM) turned out to be 134.26. Besides, the TFEB % in the data set on endogenous TFEB is 11.08%.

With `O=C1NC(=O)C(c2ccccc2Cl)=C1Nc1cccc(Cl)c1` [UNC10225092A], the TFE3 % in the data set on endogenous TFE3 is on record as 13.82%. For the same compound, the “Nuclear Count” value with SH-SY5Y cells [1] (SH-SY5Y cells, 24 h, 1 µM) came to 114.88. In addition, in the data set on SH-SY5Y cells [2], the “DQ Intensity” value is 81.85 and the “DQ Spot” value was determined as 94.92. The AK with SH-SY5Y cells [3] (SH-SY5Y cells, 24 h, 1 µM) is 96.89. In the data set on endogenous TFEB, this compound returned a TFEB % of 6.93%.

In the case of `Cn1cnc2c(N)ncnc21` [UNC10225123A], the TFE3 % in the data set on endogenous TFE3 came to 9.16%. Moreover, the “Nuclear Count” value with SH-SY5Y cells [1] worked out at 110.43. Besides, in the data set with SH-SY5Y cells [2], the “DQ Intensity” value is 105.88 and the “DQ Spot” value was 110.82. The AK in the data set on SH-SY5Y cells [3] is given as 74.79. This compound yielded a TFEB % in the data set on endogenous TFEB of 4.18%.

Turning to `Nc1n[nH]c2nnc(-c3ccccc3)c(-c3ccccc3)c12` [UNC10225185A], in the data set with endogenous TFE3, the TFE3 % came out at 12.30%. The “Nuclear Count” value with SH-SY5Y cells [1] (SH-SY5Y cells, 24 h, 1 µM) is given as 95.91. Moreover, in the data set on SH-SY5Y cells [2], the “DQ Intensity” value was found to be 101.09 and the “DQ Spot” value stood at 91.84. The compound also came in with an AK in the data set with SH-SY5Y cells [3] (SH-SY5Y cells, 24 h, 1 µM) of 73.45. The compound also returned a TFEB % with endogenous TFEB of 8.38%.

Compound `CSc1ccc(NC2=C(c3ccc(Cl)cc3)C(=O)NC2=O)cc1` [UNC10225216A] returned a TFE3 % in the data set on endogenous TFE3 of 17.03%. The “Nuclear Count” value in the data set on SH-SY5Y cells [1] (SH-SY5Y cells, 24 h, 1 µM) came out at 155.73. Also, in the data set with SH-SY5Y cells [2], the “DQ Intensity” value is recorded as 88.23 and the “DQ Spot” value is 93.29. Moreover, the AK with SH-SY5Y cells [3] (SH-SY5Y cells, 24 h, 1 µM) is given as 104.34. The compound also had a TFEB % with endogenous TFEB of 4.27%.

As to `COc1ccc(C2=C(Nc3cccc(C(=O)O)c3)C(=O)NC2=O)cc1` [UNC10225244A], the TFE3 % in the data set on endogenous TFE3 was determined as 6.87%. Moreover, the “Nuclear Count” value with SH-SY5Y cells [1] (SH-SY5Y cells, 24 h, 1 µM) came out at 109.36. Moreover, in the data set on SH-SY5Y cells [2], the “DQ Intensity” value turned out to be 74.93 and the “DQ Spot” value is 82.38. In the data set with SH-SY5Y cells [3] (SH-SY5Y cells, 24 h, 1 µM), this compound had an AK of 80.02. This compound displayed a TFEB % in the data set on endogenous TFEB of 15.51%.

In the case of `COc1cccc(C2=C(Nc3cc(Cl)c(O)c(Cl)c3)C(=O)NC2=O)c1` [UNC10225267A], in the data set on endogenous TFE3, the TFE3 % was found to be 12.35%. Further, in the data set on SH-SY5Y cells [1] (SH-SY5Y cells, 24 h, 1 µM), the “Nuclear Count” value was 119.42. In addition, in the data set on SH-SY5Y cells [2], the “DQ Intensity” value amounted to 123.38 and the “DQ Spot” value was determined as 111.15. Also, the AK with SH-SY5Y cells [3] (SH-SY5Y cells, 24 h, 1 µM) worked out at 136.91. The TFEB % in the data set with endogenous TFEB is 6.51%.

In the data set with endogenous TFE3, `Cc1ccc(C(=O)NC2CCCC2)cc1-c1ccc(C(=O)NCC2CC2)cc1` [UNC10225270A] showed a TFE3 % of 10.04%. The “Nuclear Count” value in the data set with SH-SY5Y cells [1] (24 h, 1 µM) is 92.17. Also, in the data set with SH-SY5Y cells [2], the “DQ Intensity” value is listed as 84.15 and the “DQ Spot” value came to 81.23. In addition, the AK in the data set on SH-SY5Y cells [3] (24 h, 1 µM) was determined as 80.83. This compound returned a TFEB % with endogenous TFEB of 16.20%.

For the compound `COc1cccc(C2=C(Nc3cccc(Cl)c3)C(=O)NC2=O)c1` [UNC10225288A], in the data set with endogenous TFE3, the TFE3 % is 8.01%. Further, in the data set with SH-SY5Y cells [1] (SH-SY5Y cells, 24 h, 1 µM), the “Nuclear Count” value came out at 80.70. In the data set with SH-SY5Y cells [2], the “DQ Intensity” value is reported as 106.89 and the “DQ Spot” value was 108.64. Also, the AK in the data set on SH-SY5Y cells [3] (SH-SY5Y cells, 24 h, 1 µM) is 133.69. Moreover, the TFEB % in the data set on endogenous TFEB is 6.04%.

In the data set with endogenous TFE3, `CSc1ccc(NC2=C(c3ccccc3Cl)C(=O)NC2=O)cc1` [UNC10225346A] showed a TFE3 % of 14.52%. For the same compound, the “Nuclear Count” value in the data set on SH-SY5Y cells [1] (SH-SY5Y cells, 24 h, 1 µM) was found to be 103.43. For the same compound, in the data set with SH-SY5Y cells [2], the “DQ Intensity” value stood at 121.64 and the “DQ Spot” value came to 113.39. For the same compound, the AK in the data set on SH-SY5Y cells [3] (SH-SY5Y cells, 24 h, 1 µM) worked out at 105.29. The compound also displayed a TFEB % in the data set on endogenous TFEB of 6.03%.

Consider `Cc1ccc(-n2nc(C(C)(C)C)cc2NC(=O)Nc2ccc(OCCN3CCOCC3)c3ccccc23)cc1` [UNC10225354A], for which, in the data set on endogenous TFE3, the TFE3 % stood at 11.86%. Moreover, in the data set with SH-SY5Y cells [1], the “Nuclear Count” value is given as 65.33. Further, in the data set on SH-SY5Y cells [2], the “DQ Intensity” value was 143.22 and the “DQ Spot” value is given as 116.14. The AK in the data set with SH-SY5Y cells [3] stood at 120.63. The compound also yielded a TFEB % with endogenous TFEB of 7.39%.

In the data set with endogenous TFE3, `COc1cccc(C2=C(Nc3cccc(O)c3)C(=O)NC2=O)c1` [UNC10225456A] displayed a TFE3 % of 7.19%. Also, the “Nuclear Count” value in the data set with SH-SY5Y cells [1] (SH-SY5Y cells, 24 h, 1 µM) turned out to be 97.83. Also, in the data set with SH-SY5Y cells [2], the “DQ Intensity” value turned out to be 100.94 and the “DQ Spot” value was 105.72. Also, the AK in the data set with SH-SY5Y cells [3] (SH-SY5Y cells, 24 h, 1 µM) worked out at 101.77. In the data set with endogenous TFEB, this compound showed a TFEB % of 8.57%.

In the data set on endogenous TFE3, `O=C1NC(=O)C(c2ccc(Cl)cc2)=C1Nc1cccc(Cl)c1` [UNC10225464A] registered a TFE3 % of 10.27%. Besides, in the data set on SH-SY5Y cells [1] (SH-SY5Y cells, 24 h, 1 µM), the “Nuclear Count” value stood at 85.62. In addition, in the data set on SH-SY5Y cells [2], the “DQ Intensity” value is 132.70 and the “DQ Spot” value is 111.59. The compound also displayed an AK in the data set with SH-SY5Y cells [3] (SH-SY5Y cells, 24 h, 1 µM) of 74.47. Besides, the TFEB % with endogenous TFEB came out at 3.70%.

The values are drawn from publication PMC9851200, “Multiparameter phenotypic screening for endogenous TFEB and TFE3 translocation identifies novel chemical series modulating lysosome function” (Autophagy, 2022).
